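48-hour exposure; five concentrations; linearly interpolated endpoints. The concentration for 50% growth inhibition is given as GI50. TGI is the concentration that stops growth completely.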
How the values were obtained:
Test in all cases: NCI anticancer screen, dose series, 48 h
[1] = tested on: UACC-62 melanoma
[2] = tested on: MDA-MB-231 breast
[3] = tested on: ACHN renal
[4] = tested on: TK-10 renal
[5] = tested on: MCF7 breast
[6] = tested on: OVCAR-3 ovarian
[7] = tested on: K-562 leukemia
[8] = tested on: HS 578T breast
[9] = tested on: T-47D breast
[10] = tested on: 786-0 renal
[11] = tested on: SF-295 CNS
[12] = tested on: NCI-H522 lung
[13] = tested on: SK-MEL-5 melanoma
[14] = tested on: DU-145 prostate
[15] = tested on: HOP-62 NSCLC
[16] = tested on: HCT-15 colon
[17] = tested on: SF-268 CNS
[18] = tested on: CAKI-1 renal
[19] = tested on: SR leukemia
[20] = tested on: NCI-H226 lung
[21] = tested on: SNB-19 CNS
[22] = tested on: OVCAR-4 ovarian
[23] = tested on: SK-MEL-28 melanoma
[24] = tested on: SW-620 colon
[25] = tested on: U251 CNS
[26] = tested on: HCC-2998 colon
[27] = tested on: LOX IMVI melanoma
[28] = tested on: OVCAR-8 ovarian
[29] = tested on: UACC-257 melanoma
[30] = tested on: MALME-3M melanoma
[31] = tested on: A549 NSCLC
[32] = tested on: SNB-75 CNS
[33] = tested on: NCI/ADR-RES ovarian
[34] = tested on: EKVX NSCLC
[35] = tested on: MOLT-4 leukemia
[36] = tested on: SN12C renal
[37] = tested on: HOP-92 NSCLC
[38] = tested on: OVCAR-5 ovarian
[39] = tested on: COLO 205 colon
[40] = tested on: CCRF-CEM leukemia
[41] = tested on: SF-539 CNS
[42] = tested on: NCI-H23 lung
[43] = tested on: RXF 393 renal
[44] = tested on: KM12 colon
[45] = tested on: NCI-H460 lung
[46] = tested on: HCT-116 colon
[47] = tested on: A498 renal
[48] = tested on: HL-60(TB) leukemia
[49] = tested on: PC-3 prostate
[50] = tested on: SK-MEL-2 melanoma
[51] = tested on: IGROV1 ovarian
[52] = tested on: SK-OV-3 ovarian
[53] = tested on: HT29 colon
[54] = tested on: RPMI-8226 leukemia
[55] = tested on: UO-31 renal
[56] = tested on: BT-549 breast
[57] = tested on: MDA-MB-435

With `COc1ccccc1C#Cc1ccccc1C#CCCCCO` the GI50 [1] was 16 µM, the TGI [1] was 30.7 µM and the GI50 [2] was 12.4 µM. For the same compound, the TGI [2] was 27.1 µM, the GI50 [3] was 19.4 µM and the TGI [3] was 38.6 µM. For the same compound, the GI50 [4] was 34.5 µM, the TGI [4] was > 100 µM and the GI50 [5] was 31.7 µM. For the same compound, the TGI [5] was > 100 µM, the GI50 [6] was 19.8 µM and the TGI [6] was 47.2 µM. For the same compound, the GI50 [7] was 15.5 µM, the TGI [7] was > 100 µM and the GI50 [8] was 17 µM. For the same compound, the TGI [8] was 55.4 µM, the GI50 [9] was 18.5 µM and the TGI [9] was 65.8 µM. For the same compound, the GI50 [10] was 13.6 µM, the TGI [10] was 29.7 µM and the GI50 [11] was 22.1 µM. It also gave a TGI [11] of 45.1 µM, a GI50 [12] of 16.3 µM and a TGI [12] of 33.8 µM. The GI50 [13] was 14.1 µM, the TGI [13] was 29.5 µM and the GI50 [14] was 14.3 µM. The TGI [14] was 29.5 µM, the GI50 [15] was 14.6 µM and the TGI [15] was > 100 µM. The GI50 [16] was 19.9 µM, the TGI [16] was 48.9 µM and the GI50 [17] was 18 µM. It also gave a TGI [17] of 45.2 µM, a GI50 [18] of 19.7 µM and a TGI [18] of 42.7 µM. For the same compound, the GI50 [19] was 1.01 µM, the TGI [19] was 64.4 µM and the GI50 [20] was 21.4 µM. It also gave a TGI [20] of 49.2 µM, a GI50 [21] of 16.7 µM and a TGI [21] of 32.8 µM. For the same compound, the GI50 [22] was 23.2 µM, the TGI [22] was 63.1 µM and the GI50 [23] was 16.8 µM. The TGI [23] was 33.4 µM, the GI50 [24] was 19.2 µM and the TGI [24] was 46.4 µM. It also gave a GI50 [25] of 18.7 µM, a TGI [25] of 37.3 µM and a GI50 [26] of 17.9 µM. For the same compound, the TGI [26] was 35.4 µM, the GI50 [27] was 17.9 µM and the TGI [27] was 36 µM. It also gave a GI50 [28] of 22.6 µM, a TGI [28] of 74.9 µM and a GI50 [29] of 20.6 µM. For the same compound, the TGI [29] was 38.8 µM, the GI50 [30] was 22.4 µM and the TGI [30] was 65.6 µM. It also gave a GI50 [31] of 16.3 µM, a TGI [31] of 36.5 µM and a GI50 [32] of 12 µM. For the same compound, the TGI [32] was 26.2 µM, the GI50 [33] was 21.9 µM and the TGI [33] was 47.4 µM. It also gave a GI50 [34] of 15.9 µM, a TGI [34] of 34.4 µM and a GI50 [35] of 19.6 µM. The TGI [35] was 96 µM, the GI50 [36] was 17.5 µM and the TGI [36] was 34.5 µM. For the same compound, the GI50 [37] was 13.7 µM, the TGI [37] was 31.1 µM and the GI50 [38] was 16.8 µM. The TGI [38] was 34.1 µM, the GI50 [39] was 18.3 µM and the TGI [39] was 37.7 µM. The GI50 [40] was 16.3 µM, the TGI [40] was 85.6 µM and the GI50 [41] was 14.4 µM. For the same compound, the TGI [41] was 29.1 µM, the GI50 [42] was 19.1 µM and the TGI [42] was 37.7 µM. The GI50 [43] was 13.8 µM, the TGI [43] was 29.8 µM and the GI50 [44] was 23.1 µM. It also gave a TGI [44] of 57.8 µM, a GI50 [45] of 15.5 µM and a TGI [45] of 34.2 µM. The GI50 [46] was 16 µM, the TGI [46] was 36.3 µM and the GI50 [47] was 13.3 µM. For the same compound, the TGI [47] was 27.9 µM, the GI50 [48] was 50.8 µM and the TGI [48] was > 100 µM. The GI50 [49] was 15.4 µM, the TGI [49] was 42.2 µM and the GI50 [50] was 20.1 µM. For the same compound, the TGI [50] was 41.6 µM, the GI50 [51] was 15.3 µM and the TGI [51] was 32.2 µM. The GI50 [52] was 17.9 µM, the TGI [52] was 40.7 µM and the GI50 [53] was 8.58 µM. The TGI [53] was 29 µM, the GI50 [54] was 20 µM and the TGI [54] was > 100 µM. The GI50 [55] was 16.8 µM, the TGI [55] was 32.8 µM and the GI50 [56] was 15.5 µM. The TGI [56] was 33.4 µM, the GI50 [57] was 20.2 µM and the TGI [57] was 41.8 µM.

Reference: PubChem BioAssay (NCI)
